Measurements published in patent US10391150B2, “Treatments for migraine and related disorders” (The University of Chicago, priority 2011, dated 2019).
Where two headings read alike, the source gives them in different places.

Experiments:
[1] = test system: microglia in hippocampal slice cultures; assay type: cell-based, rat
[2] = test system: OS from cLTP in hippocampal slice cultures; assay: OS / reactive oxygen species generated from chemical long-term potentiation (cLTP) in slice cultures; assay type: cell-based, rat; settings: 3 days treatment (IFN-γ 500 U/mL; IL-11; IGF-1), compared to shams
Description: This beneficial effect of low-level IFN-γ is supported by results from rats. In rats, enrichment, which occurs with hippocampal learning, led to a significant elevation in hippocampal T-cells, IFN-γ and MBP.
Experiments were performed in rat hippocampal slices cultures and SD induced as previously described (Pusic et al., 2011). Results were derived from n≥3-6/group. […] This is consistent with the neural activity increase seen after SD, which mimics the hyperexcitability evident in migraine patients.
This prompted the inventors to examine whether insulin could reduce SD susceptibility by increasing CA3 pyramidal neuron bursting. The inventors induced SD trans-synaptically in rat HSC using electrical stimuli (100 μs pulses @ 10 Hz for 1 s) ranging from 1 to 10,000 nC in order to determine SD threshold in sham and experimental groups (Pusic et al., 2011). Results were based on n≥3-6/group. […] This insulin dose approximates the pharmacological levels seen in humans treated with nasal insulin. […] The inventors hypothesized that the effect of insulin occurred through IGF-1 receptor cross-talk.
The inventors use a well-accepted method for inducing cLTP in slice cultures (Kraig et al., 2010; Otmakhov et al., 2004a; Otmakhov et al., 2004b; Kopec et al., 2006). The protocol consists of raising cAMP levels and increasing synaptic activity using rolipram/forskolin applied in a Mg^2+-free Ringer's solution (36° C.) for 5 min, then allowing slices to recover in normal media.

[3] = test system: SD in neocortex and hippocampus of anesthetized rat; assay: SD threshold in vivo (0.5 M KCl injection) after nasal administration; settings: a day after nasal treatment (IGF-1 150 μg; IL-11 1 μg; IFN-γ 50,000 units); control 1-8 nL
Description: Images show experimental setups for nasal administration and testing. (FIG. 7A) Nasal injection setup showing heat lamp and thermo-regulator that maintains temperature at 37° C. plus nose cone used to deliver isoflurane anesthesia. (FIG. 7B) Operator is shown administering nasal IGF-1 solution, which is performed in a fume hood to adequately vent isoflurane from nose cone. (FIG. 7C) Image illustrates standard electrophysiology setup. Anesthetized animal is placed into a standard electrophysiology holder and anesthesia maintained by a nose cone delivering 3% isoflurane in oxygen. Arterial oxygen saturation is monitored with a pulse-oximeter. Animals are warmed to 37.5° C. with a heating plate. SD is induced by progressively injecting larger volumes of 0.5 M KCl from an 8 μm diameter microelectrode. SD is registered with a second microelectrode used for DC recordings placed more caudally. After SD is evoked by a given injection pulse, the stimulating electrode is withdrawn and a volume re-injected under mineral oil. The diameter of the resultant KCl injection sphere is then measured off line using a compound microscope and the injection volume calculated. For example, in the above whole animal experiments it took 1-8 nL of 0.5 M KCl to evoke SD in control brain regions while after acute IGF-1 this amount rose to 67-109 nL. A day after IGF-1 treatment the volume needed to evoked SD was 34-48 nL. IFN-γ treatment required 338 nL of 0.5 M KCl a day after treatment and IL-11 required 67-200 nL.
Rats (FIGS. 6 and 7) are anesthetized with inhalational isoflurane and kept warm. While anesthetized, animals are placed in a supine position and 50 μL of sterile drug (i.e., IFN-γ, IGF-1, or IL-11) solution [or sterile saline vehicle (sham control)] is administered nasally by delivering 5 μL alternating between the left and right naris every 2 min over 20 minutes. Animals are given nasal drug treatments daily at the same time for 7 days before subsequent experiments. Doses for all 3 agents begin with the effective doses noted in our work using slice cultures (1×), then include others (0.1× and 10×). The inventors base this strategy on the fact that the effective culture dose for IGF-1 (40 ng/mL) closely approximates the dose used in vivo (143 μg/kg).
This approach was applied to measurement of SD threshold (FIG. 10) after treatment (FIG. 7) with nasally administered IGF-1 (150 μg), IL-11 (1 μg), IFN-γ (50,000 units), and insulin (20 μg). […] Resistance against SD was always greater in hippocampus compared to neocortex (n=4, controls; n=3, acutely after IGF-1; n=6, one day after IGF-1; n=6, one day after IL-11; n=6, one day after IFN-γ; and n=3, acutely after insulin).
Nasal administration followed by SD threshold evaluation in vivo. Vehicle or human recombinant IGF-1 (150 μg) is administered intranasally. SD threshold is established by injection of nanoliter volumes of 0.5 M KCl into neocortex or hippocampus (−2.0 mm from Bregma and 1.5 mm lateral from midline at either 750 μm or 2,800 μm into brain, respectively) using a thin-walled glass pipette and Picospritzer. Once a threshold is established, it is confirmed two more times, with an exemplary record from a vehicle-sham animal shown below. […] The diameter of the injected sphere is then measured using a compound microscope and used to calculate the injected volume, then moles of potassium. […]

Molecule: NC1=N[C@H](O)[C@H]2[C@H]3O[C@]4(O)O[C@@H]([C@@H](O)[C@@]2(N1)[C@@H]4O)[C@]3(O)CO [TTX, tetrodotoxin]
- number of microglia moving long distances [1]: significantly increased the number of microglia moving long distances

Molecule: lipopolyssacharide [LPS]
- number of microglia moving long distances ([1]; slice cultures, vital imaging): significantly decreased the number of microglia moving long distances

B1: Interleukin 11 (protein, listed as Homo sapiens)
chain: MNCVCRLVLVVLSLWPDTAVAPGPPPGPPRVSPDPRAELDSTVLLTRSLLADTRQLAAQLRDKFPADGDHNLDSLPTLAMSAGALGALQLPGVLTRLRADLLSYLRHVQWLRRAGGSSLKTLEPELGTLQARLDRLLRRLQLLMSRLALPQPPPDPPAPPLAPPSSAWGGIRAAHAILGGLHLTLDWAVRGLLLLKTRL
- OS / reactive oxygen species generated from cLTP [2]: significantly reduced OS
- volume of 0.5 M KCl needed to evoke SD [3]: 67 to 200 nL
